Test results: patent publication US10640497B2, “Microbiocidal oxadiazole derivatives” (SYNGENTA PARTICIPATIONS AG, priority 2015, dated 2020)

What was measured:
[1] = system: Glomerella lagenarium (Colletotrichum lagenarium); assay: Fungicidal activity against Glomerella lagenarium (Colletotrichum lagenarium), liquid culture, cucumber, preventative (anthracnose); format: cell-based; conditions: Colletotrichum orbiculare, liquid culture (PDB), growth inhibition measured photometrically 3-4 days after application, compared to untreated control
Procedure, shortened: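 Glomerella lagenarium conidia in potato dextrose broth were exposed in 96-well plates to test compound diluted from DMSO stock with 0.025% Tween20 and incubated at 24 °C. Growth inhibition was read photometrically 3–4 days after application, as percent activity relative to untreated check.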

[2] = system: Puccinia recondita f. sp. tritici; assay: Fungicidal activity against Puccinia recondita f. sp. tritici, wheat, leaf disc curative (brown rust); format: in vivo; conditions: foliar, 144 h, wheat leaf segments, curative (applied 1 day after inoculation), 6-8 days after application, compared to untreated control
Procedure, shortened: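 Wheat cv. Kanzler leaf segments on agar, inoculated with brown rust spores and kept dark at 19 °C, 75% rh; formulated compound sprayed 1 day after inoculation (curative). Incubated 19 °C, 75% rh, 12 h light/dark; percent disease control vs untreated scored 6–8 days after application.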

Phakopsora pachyrhizi = assay: Fungicidal activity against Phakopsora pachyrhizi, soybean, leaf disc preventative (Asian soybean rust); format: in vivo; conditions: foliar, 288 h, 12-14 days after application, compared to untreated control
Procedure, shortened: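 Soybean leaf discs on water agar were sprayed with compound diluted in water, then inoculated one day later with a spore suspension on the lower leaf surface. After 24-36 h dark at 20 °C, 75% rh, discs were held at 20 °C, 12 h light/day. Percent disease control versus untreated assessed 12-14 days post-application.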

[3] = system: Puccinia recondita f. sp. tritici; assay: Fungicidal activity against Puccinia recondita f. sp. tritici, wheat, leaf disc preventative (brown rust); format: in vivo; conditions: foliar, wheat leaf segments, preventative (inoculated 1 day after application), 7-9 days after application, compared to untreated control
Procedure, shortened: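 Wheat cv. Kanzler leaf segments on water agar sprayed with compound (DMSO stock diluted in water), then inoculated with spore suspension 1 day later. Incubated at 19 °C, 75% rh, 12 h light/12 h dark; percent disease control versus untreated scored at 7-9 days after application.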

melting point: 54 to 58 °C
Structure (SMILES): O=C1CCON1Cc1ccc(-c2noc(C(F)(F)F)n2)cc1 [Compound A-5, 2-[[4-[5-(trifluoromethyl)-1,2,4-oxadiazol-3-yl]phenyl]methyl]isoxazolidin-3-one]
inhibition of growth at 20 ppm [1]: ≥ 80%
pest or weed control at 200 ppm [2]: ≥ 80%
pest or weed control at 200 ppm (Phakopsora pachyrhizi): ≥ 80%
pest or weed control at 200 ppm [3]: ≥ 80%
